Reference: patent US8071593B2, “2-oxo-3-benzylbenzoxazol-2-one derivatives and related compounds as Met kinase inhibitors for the treatment of tumours” (Merck Patent Gesellschaft mit beschrankter Haftung, priority 2007, dated 2011)
Structures can show the parent of a compound that is named as a salt.

tested on: not given; assay: not given

With `CC(c1cccc(NC(=O)OCCN2CCN(C)CC2)c1)n1c(=O)oc2cc(F)c(F)cc21` (stereo not drawn) (as salt: hydrochloride) [Compound A27, 2-(4-methylpiperazin-1-yl)ethyl {3-[1-(5,6-difluoro-2-oxobenzoxazol-3-yl)ethyl]phenyl}carbamate] the melting point was 236 to 238 °C (dec.).

Going from `CN(C)CCNC(=O)C(=O)Nc1cccc(Cn2c(=O)oc3cc(Cl)ccc32)c1` (as salt: hydrochloride) [Compound A141, N-[3-(6-chloro-2-oxobenzoxazol-3-ylmethyl)phenyl]-N′-(2-dimethylaminoethyl)oxalamide] to `COC(=O)c1ccc2oc(=O)n(Cc3cccc(-c4ncc(OCCCN(C)C)cn4)c3)c2c1` [Compound A64, methyl 3-{3-[5-(3-dimethylaminopropoxy)pyrimidin-2-yl]-benzyl}-2-oxo-2,3-dihydrobenzoxazole-5-carboxylate], the melting point falls from 273 °C to 125 °C.

target: Met kinase (Homo sapiens, UniProt P08581); assay: Met kinase inhibition (cell assay); type: cell-based
Sequence (P08581 25-1390): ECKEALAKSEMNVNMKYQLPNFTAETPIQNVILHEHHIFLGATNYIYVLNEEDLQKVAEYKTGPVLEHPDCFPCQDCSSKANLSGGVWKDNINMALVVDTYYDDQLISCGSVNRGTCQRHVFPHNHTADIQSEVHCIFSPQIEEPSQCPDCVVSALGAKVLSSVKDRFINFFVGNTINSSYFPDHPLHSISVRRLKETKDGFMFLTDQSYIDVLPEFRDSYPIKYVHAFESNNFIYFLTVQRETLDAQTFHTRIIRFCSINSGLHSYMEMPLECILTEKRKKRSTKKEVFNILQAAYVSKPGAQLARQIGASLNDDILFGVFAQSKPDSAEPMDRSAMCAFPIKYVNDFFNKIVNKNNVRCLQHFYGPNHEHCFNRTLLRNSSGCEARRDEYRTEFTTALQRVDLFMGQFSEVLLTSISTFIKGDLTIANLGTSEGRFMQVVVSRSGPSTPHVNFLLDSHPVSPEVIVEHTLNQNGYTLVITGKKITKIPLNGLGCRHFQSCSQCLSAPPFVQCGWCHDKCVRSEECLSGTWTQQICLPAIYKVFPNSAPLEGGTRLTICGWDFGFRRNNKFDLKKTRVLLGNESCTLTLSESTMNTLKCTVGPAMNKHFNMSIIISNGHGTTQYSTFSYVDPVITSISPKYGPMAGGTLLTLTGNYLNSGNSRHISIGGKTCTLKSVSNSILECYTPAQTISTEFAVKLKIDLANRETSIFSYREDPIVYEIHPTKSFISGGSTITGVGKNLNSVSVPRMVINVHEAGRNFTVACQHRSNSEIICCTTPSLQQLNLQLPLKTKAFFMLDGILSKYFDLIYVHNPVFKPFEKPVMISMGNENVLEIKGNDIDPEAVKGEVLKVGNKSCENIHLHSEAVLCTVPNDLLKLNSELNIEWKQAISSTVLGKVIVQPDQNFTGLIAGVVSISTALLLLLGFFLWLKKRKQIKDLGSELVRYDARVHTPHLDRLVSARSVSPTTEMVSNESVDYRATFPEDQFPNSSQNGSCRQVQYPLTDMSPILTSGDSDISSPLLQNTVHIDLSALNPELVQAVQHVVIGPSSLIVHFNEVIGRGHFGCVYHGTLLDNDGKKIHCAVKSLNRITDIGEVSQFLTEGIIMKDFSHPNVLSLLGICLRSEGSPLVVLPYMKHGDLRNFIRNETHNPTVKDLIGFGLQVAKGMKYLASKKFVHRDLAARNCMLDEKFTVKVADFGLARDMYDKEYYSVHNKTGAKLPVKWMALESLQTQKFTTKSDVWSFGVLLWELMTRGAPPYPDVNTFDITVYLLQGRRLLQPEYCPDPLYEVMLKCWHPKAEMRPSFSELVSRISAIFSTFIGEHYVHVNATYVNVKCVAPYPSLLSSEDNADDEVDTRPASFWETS

`CN(C)CCCCNC(=O)c1ccc2oc(=O)n(Cc3ccc4[nH]c(=O)[nH]c4c3)c2c1` [Compound A34, N-(4-Dimethylaminobutyl)-2-oxo-3-(2-oxo-2,3-dihydro-1H-benzimidazol-5-ylmethyl)-2,3-dihydrobenzoxazole-5-carboxamide] and `CN(C)CCNC(=O)c1ccc2oc(=O)n(Cc3ccc4[nH]c(=O)[nH]c4c3)c2c1` [Compound A35, N-(2-dimethylaminoethyl)-2-oxo-3-(2-oxo-2,3-dihydro-1H-benzoimidazol-5-ylmethyl)-2,3-dihydrobenzoxazole-5-carboxamide] fall in the same range of IC50: 0.01 to 1 µM for the first, 0.01 to 1 µM for the second.

`COc1ccc2c(c1)oc(=O)n2Cc1cccc(NC(=O)OCCCN2CCN(C)CC2)c1` [Compound A20, 3-(4-Methylpiperazin-1-yl)propyl [3-(6-methoxy-2-oxobenzoxazol-3-ylmethyl)phenyl]carbamate] and `COc1ccc2oc(=O)n(Cc3cccc(NC(=O)OCCCN4CCN(C)CC4)c3)c2c1` [Compound A1, 3-(4-methylpiperazin-1-yl)propyl [3-(5-methoxy-2-oxobenzooxazol-3-ylmethyl)phenyl]carbamate] fall in the same range of IC50: 0.01 to 1 µM for the first, 0.01 to 1 µM for the second.

`CCCNC(=O)c1ccc2oc(=O)n(Cc3cccc(NC(=O)OCCCN(C)C)c3)c2c1` [Compound A13, 3-Dimethylaminopropyl [3-(5-propylcarbamoyl-2-oxobenzoxazol-3-ylmethyl)phenyl]carbamate] and `CCOC(=O)Nc1cccc(Cn2c(=O)oc3ccc(C(=O)NCCCN(C)C)cc32)c1` [Compound A31, Ethyl {3-[5-(3-dimethylaminopropylcarbamoyl)-2-oxobenzoxazol-3-ylmethyl]phenyl}carbamate] fall in the same range of IC50: 0.01 to 1 µM for the first, 0.01 to 1 µM for the second.

`CN1CCN(CCOC(=O)Nc2cccc(Cn3c(=O)oc4ccccc43)c2)CC1` [Compound A17, 2-(4-Methylpiperazin-1-yl)ethyl [3-(2-oxobenzoxazol-3-ylmethyl)phenyl]carbamate] and `CN1CCN(CCCOC(=O)Nc2cccc(Cn3c(=O)oc4ccccc43)c2)CC1` [Compound A18, 3-(4-Methylpiperazin-1-yl)propyl [3-(2-oxobenzoxazol-3-ylmethyl)phenyl]carbamate] fall in the same range of IC50: 0.01 to 1 µM for the first, 0.01 to 1 µM for the second.

`CC(=O)c1ccc2c(c1)oc(=O)n2Cc1cccc(NC(=O)OCCCN2CCN(C)CC2)c1` [Compound A22, 3-(4-Methylpiperazin-1-yl)propyl [3-(6-acetyl-2-oxobenzoxazol-3-ylmethyl)phenyl]carbamate] and `CC(=O)c1ccc2oc(=O)n(Cc3cccc(NC(=O)OCCCN4CCN(C)CC4)c3)c2c1` [Compound A8, 3-(4-Methylpiperazin-1-yl)propyl [3-(5-acetyl-2-oxobenzoxazol-3-ylmethyl)phenyl]carbamate] fall in the same range of IC50: 0.01 to 1 µM for the first, 0.01 to 1 µM for the second.

`CN(C)CCCOc1cnc(-c2cccc(Cn3c(=O)oc4cc([N+](=O)[O-])ccc43)c2)nc1` [Compound A76] and `CN(C)CCCOc1cnc(-c2cccc(Cn3c(=O)oc4ccc(C#N)cc43)c2)nc1` [Compound A66] fall in the same range of IC50: 0.01 to 1 µM for the first, 0.01 to 1 µM for the second.

First: CN(C)CCCOc1cnc(-c2cccc(Cn3c(=O)oc4cc(F)c(F)cc43)c2)nc1 [Compound A93]
Second: CN(C)CCCOc1cnc(-c2cccc(Cn3c(=O)oc4cc5ccccc5cc43)c2)nc1 [Compound A96]
The IC50 of the first is higher: 1 to 10 µM for the first, 0.01 to 1 µM for the second. The second is the more potent here.

First: Cc1ccc2oc(=O)n(Cc3cccc(-c4ncc(OCCN5CCOCC5)cn4)c3)c2n1 [Compound A79]
Second: O=c1oc2c3ncccc3ccc2n1Cc1cccc(-c2ncc(OCCN3CCOCC3)cn2)c1 [Compound A103]
The IC50 of the first is lower: 0.01 to 1 µM for the first, 1 to 10 µM for the second.

`CCCNC(=O)c1ccc2oc(=O)n(Cc3cccc(NC(=O)OCCCN4CCNCC4)c3)c2c1` [Compound A10, 3-Piperazin-1-ylpropyl [3-(5-propylcarbamoyl-2-oxobenzoxazol-3-ylmethyl)phenyl]carbamate] and `CCCNC(=O)c1ccc2oc(=O)n(Cc3cccc(NC(=O)OCCCN4CCN(C)CC4)c3)c2c1` [Compound A5, 3-(4-Methylpiperazin-1-yl)propyl [3-(5-propylcarbamoyl-2-oxobenzoxazol-3-ylmethyl)phenyl]carbamate] fall in the same range of IC50: 0.01 to 1 µM for the first, 0.01 to 1 µM for the second.

`CCOC(=O)Nc1cccc(Cn2c(=O)oc3cc(C(=O)OC)ccc32)c1` [Compound A37, Methyl 3-(3-ethoxycarbonylaminobenzyl)-2-oxo-2,3-dihydrobenzoxazole-6-carboxylate] and `COC(=O)c1ccc2c(c1)oc(=O)n2Cc1cccc(NC(=O)OCCCN(C)C)c1` [Compound A14, 3-Dimethylaminopropyl [3-(6-methoxycarbonyl-2-oxobenzoxazol-3-ylmethyl)phenyl]carbamate] fall in the same range of IC50: 0.01 to 1 µM for the first, 0.01 to 1 µM for the second.

`CN(C)CCCOC(=O)Nc1cccc(Cn2c(=O)oc3cccnc32)c1` [Compound A11, 3-Dimethylaminopropyl [3-(2-oxooxazolo[4,5-b]pyridin-3-ylmethyl)phenyl]carbamate] and `CN(C)CCCOC(=O)Nc1cccc(Cn2c(=O)oc3ccccc32)c1` [Compound A16, 3-Dimethylaminopropyl [3-(2-oxobenzoxazol-3-ylmethyl)phenyl]carbamate] fall in the same range of IC50: 0.01 to 1 µM for the first, 0.01 to 1 µM for the second.

`Cc1ccc2c(c1)oc(=O)n2Cc1cccc(NC(=O)OCCCN2CCN(C)CC2)c1` [Compound A21, 3-(4-Methylpiperazin-1-yl)propyl [3-(6-methyl-2-oxobenzoxazol-3-ylmethyl)phenyl]carbamate] and `Cc1ccc2oc(=O)n(Cc3cccc(NC(=O)OCCCN4CCN(C)CC4)c3)c2c1` [Compound A7, 3-(4-Methylpiperazin-1-yl)propyl [3-(5-methyl-2-oxobenzoxazol-3-ylmethyl)phenyl]carbamate] fall in the same range of IC50: 0.01 to 1 µM for the first, 0.01 to 1 µM for the second.

`CC(O)c1ccc2c(c1)oc(=O)n2Cc1cccc(NC(=O)OCCCN2CCN(C)CC2)c1` (stereo not drawn) [Compound A9, 3-(4-methylpiperazin-1-yl)propyl {3-[6-(1-hydroxyethyl)-2-oxobenzoxazol-3-ylmethyl]phenyl}carbamate] and `CN1CCN(CCCOC(=O)Nc2cccc(Cn3c(=O)oc4cc(Cl)ccc43)c2)CC1` [Compound A6, 3-(4-Methylpiperazin-1-yl)propyl [3-(6-chloro-2-oxobenzoxazol-3-ylmethyl)phenyl]carbamate] fall in the same range of IC50: 0.01 to 1 µM for the first, 0.01 to 1 µM for the second.

`CCOC(=O)Nc1cccc(C(C)n2c(=O)oc3ccc(C(=O)NCCCCN(C)C)cc32)c1` (stereo not drawn) [Compound A32, Ethyl (3-{1-[5-(4-dimethylaminobutylcarbamoy1)-2-oxobenzoxazol-3-yl]ethyl}phenyl)carbamate] and `CCOC(=O)Nc1cccc(C(C)n2c(=O)oc3ccc(C(=O)NCCCN(C)C)cc32)c1` (stereo not drawn) [Compound A36, Ethyl (3-{1-[5-(3-dimethylaminopropylcarbamoy1)-2-oxobenzoxazol-3-yl]ethyl}phenyl)carbamate] fall in the same range of IC50: 0.01 to 1 µM for the first, 0.01 to 1 µM for the second.

`CN1CCN(CCCOC(=O)Nc2cccc(Cn3c(=O)oc4ccc(Cl)cc43)c2)CC1` [Compound A2] and `CN1CCN(CCCOC(=O)Nc2cccc(Cn3c(=O)oc4ccc(C(=O)N(C)C)cc43)c2)CC1` [Compound A3, 3-(4-Methylpiperazin-1-yl)propyl [3-(5-dimethylcarbamoyl-2-oxobenzoxazol-3-ylmethyl)phenyl]carbamate] fall in the same range of IC50: 0.01 to 1 µM for the first, 0.01 to 1 µM for the second.

`CN(C)C(=O)c1ccc2oc(=O)n(Cc3cccc(NC(=O)OCCCN4CCNCC4)c3)c2c1` [Compound A4, 3-Piperazin-1-ylpropyl [3-(5-dimethylcarbamoyl-2-oxobenzoxazol-3-ylmethyl)phenyl]carbamate] and `CN(C)CCCOC(=O)Nc1cccc(Cn2c(=O)oc3ccc(C(=O)N(C)C)cc32)c1` [Compound A12, 3-Dimethylaminopropyl [3-(5-dimethylcarbamoyl-2-oxobenzoxazol-3-ylmethyl)phenyl]carbamate] fall in the same range of IC50: 0.01 to 1 µM for the first, 0.01 to 1 µM for the second.

`CN1CCN(CCCOC(=O)Nc2cccc(Cn3c(=O)oc4cc(F)c(F)cc43)c2)CC1` [Compound A19, 3-(4-Methylpiperazin-1-yl)propyl [3-(5,6-difluoro-2-oxobenzoxazol-3-ylmethyl)phenyl]carbamate] and `COC(=O)c1ccc2oc(=O)n(Cc3cccc(NC(=O)OCCCN(C)C)c3)c2c1` [Compound A15, 3-Dimethylaminopropyl [3-(5-methoxycarbonyl-2-oxobenzoxazol-3-ylmethyl)phenyl]carbamate] fall in the same range of IC50: 0.01 to 1 µM for the first, 0.01 to 1 µM for the second.

First: CN(C)CCCOc1cnc(-c2cccc(Cn3c(=O)oc4cc(S(=O)(=O)CCO)ccc43)c2)nc1 [Compound A92]
Second: CCS(=O)(=O)c1ccc2oc(=O)n(Cc3cccc(-c4ncc(OCCCN(C)C)cn4)c3)c2c1 [Compound A82]
The IC50 of the first is higher: 1 to 10 µM for the first, 0.01 to 1 µM for the second.

`CCOC(=O)Nc1cccc(Cn2c(=O)oc3ccc(C(=O)NCCN(C)C)cc32)c1` [Compound A30, Ethyl {3-[5-(2-dimethylaminoethylcarbamoyl)-2-oxobenzoxazol-3-ylmethyl]phenyl}carbamate] and `CCOC(=O)Nc1cccc(C(C)n2c(=O)oc3ccc(C(=O)NCCN(C)C)cc32)c1` (stereo not drawn) [Compound A33, Ethyl (3-{1-[5-(2-dimethylaminoethylcarbamoy1)-2-oxobenzoxazol-3-yl]ethyl}phenyl)carbamate] fall in the same range of IC50: 0.01 to 1 µM for the first, 0.01 to 1 µM for the second.

`COC(=O)c1ccc2oc(=O)n(Cc3cccc(-c4ncc(OCCCN(C)C)cn4)c3)c2c1` [Compound A64, methyl 3-{3-[5-(3-dimethylaminopropoxy)pyrimidin-2-yl]-benzyl}-2-oxo-2,3-dihydrobenzoxazole-5-carboxylate] and `CC(=O)c1ccc2oc(=O)n(Cc3cccc(-c4ncc(OCCCN(C)C)cn4)c3)c2c1` [Compound A67] fall in the same range of IC50: 0.01 to 1 µM for the first, 0.01 to 1 µM for the second.

Compared with `Cc1ccc2oc(=O)n(Cc3cccc(-c4ncc(OCC5CCNCC5)cn4)c3)c2n1` [Compound A87], `CN(C)CCCOc1cnc(-c2cccc(Cn3c(=O)oc4ncccc43)c2)nc1` [Compound A95] is higher in IC50: 0.01 to 1 µM for the first, 1 to 10 µM for the second.
